Laboratory results published in US20020165148A1, “Analogues and derivatives of gastrin releasing peptide (GRP)” (priority 2000, published 2002).

What was measured:
diabetic rats = assay: injection of GRP into diabetic rats, clearance of blood glucose; assay type: in vivo
DPP IV = biological target: T1, DPP IV (Rattus norvegicus, UniProt P14740); assay: inactivation by DPP IV cleavage / half-life in plasma; assay type: in vitro ADME
T1 construct: cleavage by the enzyme DPP IV in plasma; from tissue; host or cells: plasma

pancreatic islet cells = pancreatic islet cells in vitro; cited from earlier work

T1 sequence (P14740 37-767 limits assumed): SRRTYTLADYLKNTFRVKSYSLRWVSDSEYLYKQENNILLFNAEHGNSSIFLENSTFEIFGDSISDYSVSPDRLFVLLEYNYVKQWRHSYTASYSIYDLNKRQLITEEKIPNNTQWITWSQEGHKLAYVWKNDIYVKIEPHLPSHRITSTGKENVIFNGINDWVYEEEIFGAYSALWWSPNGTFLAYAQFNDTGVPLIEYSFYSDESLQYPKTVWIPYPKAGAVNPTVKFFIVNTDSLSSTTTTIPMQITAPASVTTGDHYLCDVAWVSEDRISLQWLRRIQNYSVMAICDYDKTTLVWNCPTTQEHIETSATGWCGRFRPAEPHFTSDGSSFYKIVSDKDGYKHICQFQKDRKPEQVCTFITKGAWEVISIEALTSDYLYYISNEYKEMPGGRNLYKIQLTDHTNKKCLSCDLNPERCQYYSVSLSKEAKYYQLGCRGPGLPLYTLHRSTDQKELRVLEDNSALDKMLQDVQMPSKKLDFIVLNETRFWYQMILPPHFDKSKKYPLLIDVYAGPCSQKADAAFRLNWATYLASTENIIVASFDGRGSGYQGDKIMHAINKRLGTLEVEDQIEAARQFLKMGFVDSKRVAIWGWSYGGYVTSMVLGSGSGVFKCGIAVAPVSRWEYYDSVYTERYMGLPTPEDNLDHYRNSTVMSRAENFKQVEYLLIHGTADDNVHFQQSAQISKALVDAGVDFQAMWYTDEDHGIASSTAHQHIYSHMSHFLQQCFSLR

CSCC[C@H](NC(=O)[C@H](CC(C)C)NC(=O)[C@H](Cc1c[nH]cn1)NC(=O)CNC(=O)[C@@H](NC(=O)[C@H](C)NC(=O)[C@H](Cc1c[nH]c2ccccc12)NC(=O)[C@H](Cc1c[nH]cn1)NC(=O)[C@H](CC(N)=O)NC(=O)CNC(=O)[C@H](CCCNC(=N)N)NC(=O)[C@@H]1CCCN1C(=O)[C@H](Cc1ccc(O)cc1)NC(=O)[C@H](CCSC)NC(=O)[C@H](CCCCN)NC(=O)[C@@H](NC(=O)[C@H](CC(C)C)NC(=O)[C@@H](NC(=O)[C@@H](NC(=O)CNC(=O)CNC(=O)CNC(=O)[C@H](C)NC(=O)[C@@H]1CCCN1C(=O)[C@H](CC(C)C)NC(=O)[C@@H]1CCCN1C(=O)[C@@H](N)C(C)C)[C@@H](C)O)C(C)C)[C@@H](C)O)C(C)C)C(N)=O [GRP]
duration of glucose-lowering action (diabetic rats; in vivo, diabetic rats): only for a short period of time
clearance of blood glucose (diabetic rats; injection into diabetic rats): markedly accelerated clearance of blood glucose
inactivation as a result of cleavage by DPP IV in plasma (DPP IV): rapid inactivation
potentiation of glucose-induced insulin secretion (pancreatic islet cells): potentiate glucose-induced insulin secretion
